One assay deals with T1, APOL1 G1 (Homo sapiens, UniProt O14791, I384M/S342G).
T1 sequence (O14791 28-398 S342G/I384M): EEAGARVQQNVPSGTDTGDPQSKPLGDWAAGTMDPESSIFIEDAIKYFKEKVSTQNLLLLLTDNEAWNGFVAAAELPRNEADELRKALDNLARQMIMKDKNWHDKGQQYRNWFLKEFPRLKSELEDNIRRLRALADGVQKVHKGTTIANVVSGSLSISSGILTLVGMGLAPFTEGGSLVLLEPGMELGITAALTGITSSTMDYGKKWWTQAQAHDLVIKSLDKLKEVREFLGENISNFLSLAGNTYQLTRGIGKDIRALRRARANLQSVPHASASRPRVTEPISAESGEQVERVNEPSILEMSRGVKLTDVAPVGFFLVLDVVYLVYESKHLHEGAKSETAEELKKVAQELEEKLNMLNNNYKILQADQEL
Briefly: Trypanosoma brucei brucei Lysis Assay Using APOL1 Recombinant Protein (AlamarBlue viability readout). Particulars: for IC50: IP50 = IC50 for cell proliferation, read-out: Trypanosome Assay IP50; for Emax: read-out: Trypanosome Assay Max Activity (%). The class given is cell-based. From the text:
Trypanosoma brucei brucei is a blood stream parasite to which human, gorillas, and baboons are immune due to the presence of the APOL1 protein in their HDL particles. The protein is uptaken by the parasite via the TbHpHb receptor located in its flagellar pocket and is bonded by the Hpr protein contained in the HDL particles which triggers the receptor endocytosis by the parasite.
Following endocytosis, the formed vesicle containing the HDL particle matures from early to late endosome, and subsequently to lysosome. The concomitant pH change in the lumen of the vesicle triggers the insertion of the APOL1 protein into the membrane of the late endosome/lysosome and hereby triggers lysosomal membrane permeabilization and as a further downstream event, trypanosome lysis. Trypanosoma brucei brucei is sensitive to lysis by all three APOL1 variants (G0, G1, and G2).
The Trypanosoma brucei brucei lysis assay is a lysis assay of the parasite using recombinant APOL1 protein variant followed by a fluorescent detection method of viability by the addition of AlamarBlue reagent to the assay well, a general metabolic redox indicator (AlamarBlue assay).
Briefly, the AlamarBlue active compound, resazurin, a blue, water soluble, non-toxic and cell permeable molecule, which can be followed by absorbance, is reduced by various metabolic pathways into resorufin, a red compound which can be followed by either absorbance or fluorescence. The assay allows the calculation of the percent viability (percent of living Trypanosomes remaining in each well) at the end of a lysis relative to the untreated condition by interpolation of fluorescent values (FLU) on a standard curve with a known amount of seeded trypanosome/well.
Trypanosoma brucei brucei (ATCC, Cat. No. PRA-382)
• Lister 427 VSG 221 bloodstream form.
Equipment • E1-Clip Tip pipette 12 channel adjustable 2-125 μL, Cat. No. 4672070BT • ThermoFisher MultiDrop 384, Cat. No. 5840300 • Multidrop • Agilent Bravo, Cat. No. G5409A • Bravo • SpectraMax M5 Assay Ready Plates (ARPs) • ARPs comes in two formats: • […] final top concentration with a 2.5 fold dilution down. • […] final top concentration with a 3 fold dilution down. • Both have a 10 point Dose response. • 0.1% DMSO final in the Black Assay Plate. • Compounds are diluted 1000 fold in the Black Assay Plate. • Each plate is designed for 14 compounds in duplicate. • In the final Black Assay Plate: • Column 1: Media only (no APOL1) (100% viable) • Column 2-23: 0.05 μg/mL APOL1 (˜EC90) (10% viable with APOL1) • Column 24: 0.1 μg/mL APOL1 (EC100) (Approx. […] Step 2, Day 4 • Centrifuge at 800×g for 5 minutes at room temperature. • Resuspend in 1 mL media. • Make a 1:25 fold dilution (10 μL/240 μL media). • Count on a hemocytometer (after adding parasites). • Let sit for 1-2 minutes for the parasites to settle. • Count should be approximately 100 viable motile parasites/16 grid or approximately 25×10^6 parasites/flask. • Passage the parasites by adding 1×10^6 parasites/T75 flask in 20 mL media. • Passage the parasites by adding 2.33×10^6 parasites/T175 flask in 46.6 mL media. • For every T75 flask should make enough for approximately 1.5×384 well assay plates. • For every T175 flask should make enough for approximately 3.8×384 well assay plates. Step 3, Day 6 • Centrifuge at 800×g for 5 minutes. • Resuspend in 3 mL assay media (No phenol red, no FBS) per 75 starting flask. • Resuspend in 7 mL assay media (No phenol red, no FBS) per 175 flask • Make a 1:25 fold dilution. • Count by hemocytometer. • Every T75 flask set up should have approximately 75×10^6 parasites/flask (verify doubling time=8.7 hours±1 hour). • Every T175 flask set up should have approximately 175×10^6 parasites/flask (verify doubling time=8.7 hours±1 hour). • Require 46×10^6 parasites per 384 well plate (at 120,000 parasites per well). […]
In general terms: The colour change of resazurin is a common sign of viable cells or microbes.

The target in the next assay is T2, APOL1 (Homo sapiens, UniProt O14791).
T2 sequence (O14791 1-398 S342G/I384M): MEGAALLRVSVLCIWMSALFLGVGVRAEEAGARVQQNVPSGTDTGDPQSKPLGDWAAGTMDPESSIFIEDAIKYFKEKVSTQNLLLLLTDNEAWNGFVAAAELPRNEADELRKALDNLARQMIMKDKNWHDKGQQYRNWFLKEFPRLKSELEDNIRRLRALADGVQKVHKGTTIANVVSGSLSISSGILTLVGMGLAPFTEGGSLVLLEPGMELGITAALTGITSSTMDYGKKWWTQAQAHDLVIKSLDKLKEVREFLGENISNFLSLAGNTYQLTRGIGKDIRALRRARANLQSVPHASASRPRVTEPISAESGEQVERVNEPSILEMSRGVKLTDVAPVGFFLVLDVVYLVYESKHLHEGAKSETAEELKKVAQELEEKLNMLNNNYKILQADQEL
As to the kind of experiment: Multi-Tox Assay (MultiTox-Fluor Multiplex Cytotoxicity Assay in tet-inducible APOL1 T-REx-HEK293 cells; Table 46 does not say which APOL1 variant G0/G1/G2). The class given is cell-based. Particulars: APOL1 variant not given; for IC50: IP50 = IC50 for cell proliferation.

Read-outs that look alike come from different tables or passages of the source.

For orientation: IC90 means the concentration needed for an effect of 90%. Low readings indicate greater potency, high ones weaker potency. For the compound `CC1CC2(CC(C3CC3)N1)OCCc1cc(Cl)sc12` (mixture of isomers) [Compound 211, (2S,6S)-2-chloro-2′-cyclopropyl-6′-methyl-spiro[4,5-dihydrothieno[2,3-c]pyran-7,4′-piperidine]], on APOL1 G1 (Trypanosome Assay), the IC50 lay within 50 to 500 nM and the Emax was found to be 113%. At APOL1, the IC90 lay within 50 to 500 nM, the “Multi-Tox Assay Max Activity (%)” value came out at 99.6% and the IC50 was below 50 nM.
As to `CC1CC2(CC(C(C)C)N1)OCCc1cc(Cl)sc12` (mixture of isomers) [Compound 214], at APOL1 G1 (Trypanosome Assay), the IC50 was in the range of 50 to 500 nM and the Emax was determined as 109%. The compound further had an IC50 on APOL1 below 50 nM.
Taken in the same sequence, the figures for `CCC1CC2(CC(C)N1)OCCc1cc(Cl)sc12` (mixture of isomers) [Compound 215] were 50 to 500 nM, 112% and below 50 nM.
For `CC1CC2(CC(C3CCOCC3)N1)OCCc1cc(Cl)sc12` (mixture of isomers) [Compound 216], at APOL1 G1 (Trypanosome Assay), the IC50 fell in the range of 50 to 500 nM and the Emax came out at 104%. Moreover, the IC50 against APOL1 fell in the range of 50 to 500 nM.
For the compound `CC1CC2(CC(C3CC3)N1)OCCc1cc(Cl)sc12` (mixture of isomers) [Compound 217], at APOL1 G1 (Trypanosome Assay), the IC50 is below 50 nM and the Emax came to 110%. The IC50 against APOL1 is below 50 nM.
`CC1CC2(CC(C3CCC3)N1)OCCc1cc(Cl)sc12` (mixture of isomers) [Compound 218]: at APOL1 G1 (Trypanosome Assay), the IC50 was 50 to 500 nM and the Emax came to 111%. Further, the IC50 against APOL1 was below 50 nM.
`CC1CC2(CC(c3cccnc3)N1)OCCc1cc(Cl)sc12` (racemic) [Compound 20, 2-chloro-2′-methyl-6′-(3-pyridyl)spiro[4,5-dihydrothieno[2,3-c]pyran-7,4′-piperidine]]: the IC50 at APOL1 G1 (Trypanosome Assay) and at APOL1 was below 50 nM in each case. The Emax at APOL1 G1 worked out at 116%.
On to `Cc1cc([C@@H]2C[C@]3(C[C@H](C)N2)OCCc2cc(Cl)sc23)ccn1` (racemic) [Compound 21, (2S)-2-chloro-2′-methyl-6′-(2-methyl-4-pyridyl)spiro[4,5-dihydrothieno[2,3-c]pyran-7,4′-piperidine]], for which the IC50 at APOL1 G1 (Trypanosome Assay) and at APOL1 was below 50 nM throughout. Further, at APOL1 G1 (Trypanosome Assay), the Emax was 108%.
In the case of `CC1CC2(CC(c3cn(C)cn3)N1)OCCc1cc(Cl)sc12` (racemic) [Compound 22], at APOL1 G1 (Trypanosome Assay), the IC50 is below 50 nM and the Emax was 129%. On APOL1, the concentration for an effect of 90% (IC90) is below 50 nM, the “Multi-Tox Assay Max Activity (%)” value came to 99.7% and the IC50 was below 50 nM.
As for `Cc1noc2cc([C@@H]3C[C@]4(C[C@H](C)N3)OCCc3cc(Cl)sc34)ccc12` (racemic) [Compound 25], on APOL1 G1 (Trypanosome Assay), the IC50 was below 50 nM and the Emax amounted to 109%. Also, at APOL1, the “Multi-Tox Assay Max Activity (%)” value is 100.0% and the IC50 was below 50 nM.
As to `C[C@H]1C[C@@]2(C[C@@H](c3cnc4c(cnn4C)c3)N1)OCCc1cc(Cl)sc12` (racemic) [Compound 26], at APOL1 G1 (Trypanosome Assay), the IC50 was below 50 nM and the Emax amounted to 110%. Moreover, at APOL1, the “Multi-Tox Assay Max Activity (%)” value is given as 100.0% and the IC50 is below 50 nM.
For `C[C@H]1C[C@@]2(C[C@@H](c3ccc4oc(=O)n(C)c4c3)N1)OCCc1cc(Cl)sc12` (racemic) [Compound 28], on APOL1 G1 (Trypanosome Assay), the IC50 is below 50 nM and the Emax came to 104%. At APOL1, the IC90 was below 50 nM, the “Multi-Tox Assay Max Activity (%)” value is 100.0% and the IC50 was below 50 nM.
On to `Cc1cc([C@@H]2C[C@]3(C[C@H](C)N2)OCCc2cc(Cl)sc23)no1` (racemic) [Compound 29], for which, on APOL1 G1 (Trypanosome Assay), the IC50 is below 50 nM and the Emax is 109%. In addition, at APOL1, the IC90 was below 50 nM, the “Multi-Tox Assay Max Activity (%)” value was 100.0% and the IC50 is below 50 nM.
Take `C[C@H]1C[C@@]2(C[C@@H](c3ccc4c(c3)n(C)c(=O)n4C)N1)OCCc1cc(Cl)sc12` (racemic) [Compound 32]: on APOL1 G1 (Trypanosome Assay), the IC50 is below 50 nM and the Emax is 116%. Besides, at APOL1, the IC90 is below 50 nM, the “Multi-Tox Assay Max Activity (%)” value is reported as 99.6% and the IC50 is below 50 nM.
With `COCCOCCOc1ccc([C@@H]2C[C@]3(C[C@H](C)N2)OCCc2cc(Cl)sc23)cc1` (racemic) [Compound 36], on APOL1 G1 (Trypanosome Assay), the IC50 is below 50 nM and the Emax turned out to be 118%. On APOL1, the IC90 was below 50 nM, the “Multi-Tox Assay Max Activity (%)” value was determined as 100.0% and the IC50 was below 50 nM.
In the case of `COc1ccc([C@@H]2C[C@]3(C[C@H](C)N2)OCCc2cc(Cl)sc23)c(F)c1` (racemic) [Compound 44], on APOL1 G1 (Trypanosome Assay), the IC50 was below 50 nM and the Emax was determined as 106%. Moreover, on APOL1, the “Multi-Tox Assay Max Activity (%)” value was 99.5% and the IC50 is below 50 nM.
In the case of `C[C@H]1C[C@@]2(C[C@@H](c3ccc(C(N)=O)cc3)N1)OCCc1cc(Cl)sc12` (racemic) [Compound 47], the IC50 on APOL1 G1 (Trypanosome Assay) and on APOL1 was below 50 nM in each case.
On to `Cc1n[nH]c2ncc([C@@H]3C[C@]4(C[C@H](C)N3)OCCc3cc(Cl)sc34)cc12` (racemic) [Compound 48], for which, at APOL1 G1 (Trypanosome Assay), the IC50 is below 50 nM and the Emax stood at 102%. For the same compound, at APOL1, the “Multi-Tox Assay Max Activity (%)” value was 99.0% and the IC50 is below 50 nM.
As to `COc1ccc([C@@H]2C[C@]3(C[C@H](C)N2)OCCc2cc(Cl)sc23)cn1` (racemic) [Compound 49], at APOL1 G1 (Trypanosome Assay), the IC50 was below 50 nM and the Emax came out at 104%. At APOL1, this compound came in with an IC50 below 50 nM.
In the case of `CC(=O)Nc1ccc([C@@H]2C[C@]3(C[C@H](C)N2)OCCc2cc(Cl)sc23)cc1` (racemic) [Compound 50], on APOL1 G1 (Trypanosome Assay), the IC50 is below 50 nM and the Emax was determined as 103%. At APOL1, the “Multi-Tox Assay Max Activity (%)” value is reported as 99.7% and the IC50 was below 50 nM.
Turning to `C[C@H]1C[C@@]2(C[C@@H](c3cnc(C4CC4)nc3)N1)OCCc1cc(Cl)sc12` (racemic) [Compound 52], on APOL1 G1 (Trypanosome Assay), the IC50 was below 50 nM and the Emax came to 104%. Also, at APOL1, the “Multi-Tox Assay Max Activity (%)” value is 99.7% and the IC50 is below 50 nM.
